Experimental data published in patent US12606568B2, “SMARCA degraders and uses thereof” (Kymera Therapeutics, Inc., priority 2020, dated 2026).

Biological target: SMARCA2 (Homo sapiens, UniProt P51531)
Experiment: SMARCA2 Western blot MV4-11 degradation
Assay type: cell-based
Set-up: SMARCA2 and SMARCA4 protein degradation in MV4-11 cells; endogenous in cells; host or cells: MV4-11
Details: for Dmax: MV4-11, MV4-11 cells, read-out: SMARCA2 MSD MV411 degradation 24 h: average Dmax %; for Dmax / DC50: 24 h; for DC50 / SMARCA2 MSD MV411 degradation 24 h: average Dmax %: MV4-11 cells; for DC50: read-out: SMARCA2 MSD MV411 degradation 24 h: Mean external-Abs DC50
Procedure: Example 54. SMARCA2 and SMARCA 4 Western Blot MV4-11 Degradation
Cells were seeded into 6-well plates (MV4-11: 4×10^6 cells/well/1 ml) and 1 ml of 2× compound solution was added into the well to make the final concentration and the plates were mixed well and incubated for 24 hours (No cytotoxicity was observed). The cell were collected with media and spun at 3000 rpm for 5 minutes. The supernatant was aspirated and the well and the cells were washed with cold PBS once and combined for centrifugation again; the supernatant aspirated again. 200 ul pre-chilled RIPA lysis buffer (Boston BioProducts BP-115D) with protease/phosphatase inhibitor (Roche 05892791001/Roche 04906837001) was directly added into the tube to lyze the cells for 20 minutes on ice. The cell lysate were collected into EP tubes and spun at 13000 rpm for 20 minutes and 72 ul supernatant was transferred to a fresh EP tube containing 18 ul of 5× loading buffer (Beyotime Bio P0015) to make the loading samples. The samples were heated to 100° C. for 10 minutes and cooled to RT and microcentrifuged. 20 ul of samples were loaded onto SDS-PAGE gel (Novex, WG1402BOX) and the gel was run at 80 V for 20 minutes and 120 V for 1.5 hours. The samples were electrotransfer to a NC membrane using wet-transfer method with 250 mA for 2.5 hours. The membrane was blocked with LICOR blocking buffer (LI-COR, 927-50000) for 1 hour. The membrane was washed three times with TBST (CST #9997S), 5 minutes each. Incubation was performed with primary antibody prepared in blocking buffer with 0.1% Tween-20 (Solarbio, P8220) at 4° C. overnight (Anti-SMARCA2/BRM antibody (ab15597) 1:500; Anti-BRG1 antibody [EPR3912] (ab108318) 1:1000; Rabbit anti-Baf180 antibody [EPR15860] (Abcam, ab196022) 1:1000; mouse anti-beta-Actin (8H10D10) (CST #3700) 1:10000). The membrane was washed three times with TBST, 5 minutes each. Incubation with secondary antibody was performed for 1 hour at RT (anti-rabbit IgG (Licor, 926-32211) 1:5000; anti-mouse IgG (LI-COR, 926-68070) 1:5000). The membrane was washed three times with TBST, 5 minutes each and lastly the LiCOR was read.
The letter codes for SMARCA degradation potency (DC50) include: A (<100 nM), B (100-500 nM), C (501-1000 nM), and D (>1000 nM). The letter codes for the percentage of SMARCA degradation after 24 hours (Dmax %) include: A (>90% degradation), B (>70-90% degradation), C (50-70% degradation), and D (<50% degradation).

Chain of SMARCA2 (P51531 whole entry): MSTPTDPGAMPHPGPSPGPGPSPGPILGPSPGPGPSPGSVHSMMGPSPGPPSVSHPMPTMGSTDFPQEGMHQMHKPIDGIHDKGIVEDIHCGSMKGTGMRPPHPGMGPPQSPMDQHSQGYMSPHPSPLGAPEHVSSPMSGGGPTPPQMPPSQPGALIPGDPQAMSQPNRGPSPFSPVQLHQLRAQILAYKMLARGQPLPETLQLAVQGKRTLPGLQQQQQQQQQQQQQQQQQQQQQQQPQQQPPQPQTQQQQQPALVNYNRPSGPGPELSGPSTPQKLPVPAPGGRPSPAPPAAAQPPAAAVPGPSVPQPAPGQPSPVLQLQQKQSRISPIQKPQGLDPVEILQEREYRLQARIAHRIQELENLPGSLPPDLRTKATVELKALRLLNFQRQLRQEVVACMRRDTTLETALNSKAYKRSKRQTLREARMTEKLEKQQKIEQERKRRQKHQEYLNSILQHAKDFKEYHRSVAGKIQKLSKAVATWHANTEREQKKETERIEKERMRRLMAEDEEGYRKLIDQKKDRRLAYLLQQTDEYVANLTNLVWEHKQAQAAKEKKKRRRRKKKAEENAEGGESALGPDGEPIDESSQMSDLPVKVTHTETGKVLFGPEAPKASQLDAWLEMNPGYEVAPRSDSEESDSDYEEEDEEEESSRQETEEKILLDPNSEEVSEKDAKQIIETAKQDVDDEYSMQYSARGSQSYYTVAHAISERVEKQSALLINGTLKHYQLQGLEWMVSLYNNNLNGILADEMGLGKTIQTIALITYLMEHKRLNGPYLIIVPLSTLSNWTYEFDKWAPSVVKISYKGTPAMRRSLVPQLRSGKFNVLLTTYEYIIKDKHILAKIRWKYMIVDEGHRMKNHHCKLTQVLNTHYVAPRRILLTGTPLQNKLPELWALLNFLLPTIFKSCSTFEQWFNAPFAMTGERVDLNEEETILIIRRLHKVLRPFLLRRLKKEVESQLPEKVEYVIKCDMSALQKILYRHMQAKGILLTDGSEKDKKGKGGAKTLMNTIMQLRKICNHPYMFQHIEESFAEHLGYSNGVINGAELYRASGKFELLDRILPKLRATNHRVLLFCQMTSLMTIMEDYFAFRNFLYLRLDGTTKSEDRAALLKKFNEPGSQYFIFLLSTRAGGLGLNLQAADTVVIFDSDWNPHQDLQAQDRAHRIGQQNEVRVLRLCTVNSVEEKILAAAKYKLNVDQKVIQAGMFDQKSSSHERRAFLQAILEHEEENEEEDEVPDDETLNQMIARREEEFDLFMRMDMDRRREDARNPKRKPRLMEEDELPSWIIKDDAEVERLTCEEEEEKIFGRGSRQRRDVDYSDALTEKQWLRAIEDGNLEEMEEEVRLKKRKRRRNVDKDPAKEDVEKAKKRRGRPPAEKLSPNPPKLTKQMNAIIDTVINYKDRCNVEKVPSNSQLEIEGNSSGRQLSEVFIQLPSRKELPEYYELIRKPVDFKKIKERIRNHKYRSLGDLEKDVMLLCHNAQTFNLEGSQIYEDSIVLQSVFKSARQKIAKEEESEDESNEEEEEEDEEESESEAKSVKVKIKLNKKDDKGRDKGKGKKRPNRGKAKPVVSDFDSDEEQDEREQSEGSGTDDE

What does the source list for `Cc1ncsc1-c1ccc(CNC(=O)[C@@H]2C[C@@H](O)CN2C(=O)[C@H](c2cc(N3CCC(CCN4CCC(c5cnc(N6C7CCC6CN(c6cc(-c8ccccc8O)nnc6N)C7)nc5)CC4)CC3)no2)C(C)C)cc1` [I-63, (2S,4R)-1-((2S)-2-(3-(4-(2-(4-(2-(3-(3-amino-6-(2-hydroxyphenyl)pyridazin-4-yl)-3,8-diazabicyclo[3.2.1]octan-8-yl)pyrimidin-5-yl)piperidin-1-yl)ethyl)piperidin-1-yl)isoxazol-5-yl)-3-methylbutanoyl)-4-hydroxy-N-(4-(4-methylthiazol-5-yl)benzyl)pyrrolidine-2-carboxamide]?
Dmax: > 90%; DC50: < 100 nM

What does the source list for `Cc1ncsc1-c1ccc(CNC(=O)[C@@H]2C[C@@H](O)CN2C(=O)[C@@H](c2cc(N3CCC(CCN4CCC(c5cnc(N6C7CCC6CN(c6cc(-c8ccccc8O)nnc6N)C7)nc5)CC4)CC3)no2)C(C)C)cc1` [I-62, (2S,4R)-1-((2R)-2-(3-(4-(2-(4-(2-(3-(3-amino-6-(2-hydroxyphenyl)pyridazin-4-yl)-3,8-diazabicyclo[3.2.1]octan-8-yl)pyrimidin-5-yl)piperidin-1-yl)ethyl)piperidin-1-yl)isoxazol-5-yl)-3-methylbutanoyl)-4-hydroxy-N-(4-(4-methylthiazol-5-yl)benzyl)pyrrolidine-2-carboxamide]?
Dmax: 50 to 70%; DC50: 100 to 500 nM

`Cc1ncsc1-c1ccc(CNC(=O)[C@@H]2C[C@@H](O)CN2C(=O)[C@@H](NC(=O)C2(F)CC2)C(C)(C)C)c(OCCCCN2CCC(c3cnc(N4C5CCC4CN(c4cc(-c6ccccc6O)nnc4N)C5)nc3)CC2)c1` [I-74] was tested. Which Dmax did it give?
The Dmax was 70 to 90%.

What about the DC50 of the same compound?
Its DC50 is < 100 nM.

Which Dmax does the source give for `Cc1ncsc1-c1ccc(CNC(=O)[C@@H]2C[C@@H](O)CN2C(=O)[C@@H](c2cc(N3CCC(N4CCC(c5cnc(N6C7CCC6CN(c6cc(-c8ccccc8O)nnc6N)C7)nc5)CC4)CC3)no2)C(C)C)cc1` [I-49, (2S,4R)-1-(2-(3-(4-(2-(3-(3-amino-6-(2-hydroxyphenyl)pyridazin-4-yl)-3,8-diazabicyclo[3.2.1]octan-8-yl)pyrimidin-5-yl)-[1,4′-bipiperidin]-1′-yl)isoxazol-5-yl)-3-methylbutanoyl)-4-hydroxy-N-(4-(4-methylthiazol-5-yl)benzyl)pyrrolidine-2-carboxamide] here?
Its Dmax is > 90%.

What about the DC50 of the same compound?
Its DC50 is < 100 nM.

What does the source list for `Cc1ncsc1-c1ccc(CNC(=O)[C@@H]2C[C@@H](O)CN2C(=O)[C@@H](c2cc(OCCCCN3CCC(c4cnc(N5C6CCC5CN(c5cc(-c7ccccc7O)nnc5N)C6)nc4)CC3)no2)C(C)C)cc1` [I-56]?
SMARCA2 MSD MV411 degradation 24 h: average Dmax %: B (B (>70-90% degradation)); DC50: < 100 nM

Which results are given for `Cc1cc(C(C(=O)N2C[C@H](O)C[C@H]2C(=O)NCc2ccc(-c3scnc3C)cc2)C(C)CCN2CCC(c3cnc(N4C5CCC4CN(c4cc(-c6ccccc6O)nnc4N)C5)nc3)CC2)on1` (stereo partly drawn) [I-44, (2S,4R)-1-(5-(4-(2-(3-(3-amino-6-(2-hydroxyphenyl)pyridazin-4-yl)-3,8-diazabicyclo[3.2.1]octan-8-yl)pyrimidin-5-yl)piperidin-1-yl)-3-methyl-2-(3-methylisoxazol-5-yl)pentanoyl)-4-hydroxy-N-(4-(4-methylthiazol-5-yl)benzyl)pyrrolidine-2-carboxamide]?
Dmax: 70 to 90%; DC50: < 100 nM

`Cc1ncsc1-c1ccc(CNC(=O)[C@@H]2C[C@@H](O)CN2C(=O)[C@@H](NC(=O)C2(F)CC2)C(C)(C)C)c(OCCCCCCN2CCC(c3cnc(N4C5CCC4CN(c4cc(-c6ccccc6O)nnc4N)C5)nc3)CC2)c1` [I-75, (2S,4R)—N-(2-((6-(4-(2-(3-(3-amino-6-(2-hydroxyphenyl)pyridazin-4-yl)-3,8-diazabicyclo[3.2.1]octan-8-yl)pyrimidin-5-yl)piperidin-1-yl)hexyl)oxy)-4-(4-methylthiazol-5-yl)benzyl)-1-((S)-2-(1-fluorocyclopropanecarboxamido)-3,3-dimethylbutanoyl)-4-hydroxypyrrolidine-2-carboxamide] was tested. Which Dmax did it give?
Its Dmax is 70 to 90%.

And the DC50?
Its DC50 is < 100 nM.

Which Dmax does the source give for `Cc1ncsc1-c1ccc(CNC(=O)[C@@H]2C[C@@H](O)CN2C(=O)[C@H](c2cc(OCCCCN3CCC(c4cnc(N5C6CCC5CN(c5cc(-c7ccccc7O)nnc5N)C6)nc4)CC3)no2)C(C)C)cc1` [I-57] here?
The Dmax was > 90%.

And the DC50?
Its DC50 is < 100 nM.

`Cc1cc(C(C(=O)N2C[C@H](O)C[C@H]2C(=O)NCc2ccc(-c3scnc3C)cc2)C(C)CCN2CCC(c3cnc(N4C5CCC4CN(c4cc(-c6ccccc6O)nnc4N)C5)nc3)CC2)on1` (single isomer, unassigned) [I-46] was tested. Which “SMARCA2 MSD MV411 degradation 24 h: average Dmax %” value did it give?
The value was “B (B (>70-90% degradation))”.

What about the DC50 of the same compound?
The DC50 was < 100 nM.

What does the source list for `Cc1cc(C(C(=O)N2C[C@H](O)C[C@H]2C(=O)NCc2ccc(-c3scnc3C)cc2)C(C)CCN2CCC(c3cnc(N4C5CCC4CN(c4cc(-c6ccccc6O)nnc4N)C5)nc3)CC2)on1` (single isomer, unassigned) [I-45]?
Dmax: > 90%; DC50: < 100 nM

Which Dmax does the source give for `Cc1ncsc1-c1ccc(CNC(=O)[C@@H]2C[C@@H](O)CN2C(=O)[C@@H](NC(=O)C2CC3(C2)CC(N2CCC(c4cnc(N5CCN(c6cc(-c7ccccc7O)nnc6N)CC5)nc4)CC2)C3)C(C)(C)C)cc1` (stereo partly drawn) [I-65, (2S,4R)-1-((S)-2-(6-(4-(2-(4-(3-amino-6-(2-hydroxyphenyl)pyridazin-4-yl)piperazin-1-yl)pyrimidin-5-yl)piperidin-1-yl)spiro[3.3]heptane-2-carboxamido)-3,3-dimethylbutanoyl)-4-hydroxy-N-(4-(4-methylthiazol-5-yl)benzyl)pyrrolidine-2-carboxamide] here?
The Dmax was 50 to 70%.

What about the DC50 of the same compound?
Its DC50 is < 100 nM.

How did the “SMARCA2 MSD MV411 degradation 24 h: average Dmax %” value turn out when `Cc1ncsc1-c1ccc(CNC(=O)[C@@H]2C[C@@H](O)CN2C(=O)[C@@H](NC(=O)C2(F)CC2)C(C)(C)C)c(OC2CCC(N3CCC(c4cnc(N5C6CC[C@@H]5CN(c5cc(-c7ccccc7O)nnc5N)C6)nc4)CC3)CC2)c1` (stereo partly drawn) [I-71, (2S,4R)—N-(2-(((1r,4S)-4-(4-(2-(3-(3-amino-6-(2-hydroxyphenyl)pyridazin-4-yl)-3,8-diazabicyclo[3.2.1]octan-8-yl)pyrimidin-5-yl)piperidin-1-yl)cyclohexyl)oxy)-4-(4-methylthiazol-5-yl)benzyl)-1-((S)-2-(1-fluorocyclopropanecarboxamido)-3,3-dimethylbutanoyl)-4-hydroxypyrrolidine-2-carboxamide] was run?
Its value is “B (B (>70-90% degradation))”.

And the DC50?
The DC50 was < 100 nM.

With `Cc1ncsc1-c1ccc(CNC(=O)[C@@H]2C[C@@H](O)CN2C(=O)[C@@H](NC(=O)CN2C3CCC2CN([C@H]2CC[C@@H](c4cnc(N5C6CCC5CN(c5cc(-c7ccccc7O)nnc5N)C6)nc4)CC2)C3)C(C)(C)C)cc1` [I-77, (2S,4R)-1-((2S)-2-(2-(3-((1s,4R)-4-(2-(3-(3-amino-6-(2-hydroxyphenyl)pyridazin-4-yl)-3,8-diazabicyclo[3.2.1]octan-8-yl)pyrimidin-5-yl)cyclohexyl)-3,8-diazabicyclo[3.2.1]octan-8-yl)acetamido)-3,3-dimethylbutanoyl)-4-hydroxy-N-(4-(4-methylthiazol-5-yl)benzyl)pyrrolidine-2-carboxamide] as the compound, how does the Dmax read?
The Dmax was 70 to 90%.

And the DC50?
The DC50 was < 100 nM.
